According to patent US9604933B2, “Pyrazolochalcones as potential anticancer agents” (COUNCIL OF SCIENTIFIC AND INDUSTRIAL RESEARCH, priority 2013, dated 2017):

Experiments:
CCRF-CEM = assay: NCI SRB cytotoxicity, leukemia CCRF-CEM; assay type: cell-based; settings: Homo sapiens, 48 h exposure
Method: (§1) The pyrazolochalcones (7e, 8e, 10e, 11e, 12e, 13e and 8f) have been tested against fifty nine human tumor cell lines derived from nine cancer types (leukemia, non-small cell lung cancer, colon cancer, CNS cancer, melanoma, ovarian cancer, renal cancer, prostate cancer and breast cancer) as per the NCI protocol. For each compound, dose response curves for individual cell lines have been measured at a minimum of five concentrations at 10 fold dilutions. A protocol of 48 h continuous drug exposure has been used, and a sulforhodamine B (SRB) protein assay has been used to estimate cell viability or growth. The concentration for 50% cell growth inhibition (GI50), 50% cell death (LC50, 50% growth) and total cell growth inhibition (TGI, 0% growth) values were tabulated (Table-1). DMSO was used as control to calculate the values of GI50, LC50 and TGI. The compounds 7e, 8e, 10e, 11e, 12e, 13e and 8f has been evaluated for their in vitro cytotoxicity in […] cell lines from nine human cancer types of leukemia (K-562, SR), non-small cell lung (Hop-62, NCI-H226, NCI-H522), colon (HCT-116, HCT-15, HCC-2998), CNS (SF-539), melanoma (SK-MEL-5, UACC-62, M14), ovarian (IGROV1), renal (A498), prostate (PC3) and breast (BT-549, MDA-MB-435, HS578T) origin. The results are expressed as percent of cell growth determined relative to that of untreated control cells (Table 2).

HL-60(TB) = assay: NCI SRB cytotoxicity, leukemia HL-60(TB); assay type: cell-based; settings: Homo sapiens, 48 h exposure
Method: as §1

K-562 = assay: NCI SRB cytotoxicity, leukemia K-562; assay type: cell-based; settings: Homo sapiens, K562, 48 h exposure
Method: as §1

MOLT-4 = assay: NCI SRB cytotoxicity, leukemia MOLT-4; assay type: cell-based; settings: Homo sapiens, 48 h exposure
Method: as §1

NCIH322M = assay: NCI SRB cytotoxicity, non-small cell lung NCIH322M; assay type: cell-based; settings: Homo sapiens, NCI-H322M, 48 h exposure
Method: as §1

NCI-H522 = assay: NCI SRB cytotoxicity, non-small cell lung NCI-H522; assay type: cell-based; settings: Homo sapiens, 48 h exposure
Method: as §1

COLO-205 = assay: NCI SRB cytotoxicity, colon COLO-205; assay type: cell-based; settings: Homo sapiens, 48 h exposure
Method: as §1

HCT-116 = assay: NCI SRB cytotoxicity, colon HCT-116; assay type: cell-based; settings: Homo sapiens, 48 h exposure
Method: as §1

HT29 = assay: NCI SRB cytotoxicity, colon HT29; assay type: cell-based; settings: Homo sapiens, HT-29, 48 h exposure
Method: as §1

SF-539 = assay: NCI SRB cytotoxicity, CNS SF-539; assay type: cell-based; settings: Homo sapiens, 48 h exposure
Method: as §1

SNB-19 = assay: NCI SRB cytotoxicity, CNS SNB-19; assay type: cell-based; settings: Homo sapiens, 48 h exposure
Method: as §1

SNB-75 = assay: NCI SRB cytotoxicity, CNS SNB-75; assay type: cell-based; settings: Homo sapiens, 48 h exposure
Method: as §1

LOX IMVI = assay: NCI SRB cytotoxicity, melanoma LOX IMVI; assay type: cell-based; settings: Homo sapiens, 48 h exposure
Method: as §1

MALME-3M = assay: NCI SRB cytotoxicity, melanoma MALME-3M; assay type: cell-based; settings: Homo sapiens, 48 h exposure
Method: as §1

M14 = assay: NCI SRB cytotoxicity, melanoma M14; assay type: cell-based; settings: Homo sapiens, 48 h exposure
Method: as §1

MDA-MB-435 = assay: NCI SRB cytotoxicity, melanoma MDA-MB-435; assay type: cell-based; settings: Homo sapiens, Melanoma panel MDA-MB-435, 48 h exposure
Method: as §1

SK-MEL-2 = assay: NCI SRB cytotoxicity, melanoma SK-MEL-2; assay type: cell-based; settings: Homo sapiens, 48 h exposure
Method: as §1

SK-MEL-28 = assay: NCI SRB cytotoxicity, melanoma SK-MEL-28; assay type: cell-based; settings: Homo sapiens, 48 h exposure
Method: as §1

SK-MEL-5 = assay: NCI SRB cytotoxicity, melanoma SK-MEL-5; assay type: cell-based; settings: Homo sapiens, 48 h exposure
Method: as §1

IGROV1 = assay: NCI SRB cytotoxicity, ovarian IGROV1; assay type: cell-based; settings: Homo sapiens, IGROV-1, 48 h exposure
Method: as §1

OVCAR-3 = assay: NCI SRB cytotoxicity, ovarian OVCAR-3; assay type: cell-based; settings: Homo sapiens, 48 h exposure
Method: as §1

OVCAR-8 = assay: NCI SRB cytotoxicity, ovarian OVCAR-8; assay type: cell-based; settings: Homo sapiens, 48 h exposure
Method: as §1

NCI/ADR-RES = assay: NCI SRB cytotoxicity, ovarian NCI/ADR-RES; assay type: cell-based; settings: Homo sapiens, 48 h exposure
Method: as §1

SK-OV-3 = assay: NCI SRB cytotoxicity, ovarian SK-OV-3; assay type: cell-based; settings: Homo sapiens, 48 h exposure
Method: as §1

786-0 = assay: NCI SRB cytotoxicity, renal 786-0; assay type: cell-based; settings: Homo sapiens, 48 h exposure
Method: as §1

ACHN = assay: NCI SRB cytotoxicity, renal ACHN; assay type: cell-based; settings: Homo sapiens, 48 h exposure
Method: as §1

RXF 393 = assay: NCI SRB cytotoxicity, renal RXF 393; assay type: cell-based; settings: Homo sapiens, 48 h exposure
Method: as §1

UO-31 = assay: NCI SRB cytotoxicity, renal UO-31; assay type: cell-based; settings: Homo sapiens, 48 h exposure
Method: as §1

PC-3 = assay: NCI SRB cytotoxicity, prostate PC-3; assay type: cell-based; settings: Homo sapiens, 48 h exposure
Method: as §1

MCF7 = assay: NCI SRB cytotoxicity, breast MCF7; assay type: cell-based; settings: Homo sapiens, 48 h exposure
Method: as §1

BT-549 = assay: NCI SRB cytotoxicity, breast BT-549; assay type: cell-based; settings: Homo sapiens, 48 h exposure
Method: as §1

T-47D = assay: NCI SRB cytotoxicity, breast T-47D; assay type: cell-based; settings: Homo sapiens, T47D, 48 h exposure
Method: as §1

Non-small cell lung = assay: NCI SRB cytotoxicity, non-small cell lung panel average; assay type: cell-based, human; settings: average of cell lines
Method: as §1
(§2) Each cancer type represents the average of six to eight different cancer cell lines.

Colon = assay: NCI SRB cytotoxicity, colon panel average; assay type: cell-based, human; settings: average of cell lines
Method: as §1, §2

Melanoma = assay: NCI SRB cytotoxicity, melanoma panel average; assay type: cell-based, human; settings: average of cell lines
Method: as §1, §2

Renal = assay: NCI SRB cytotoxicity, renal panel average; assay type: cell-based, human; settings: average of cell lines
Method: as §1, §2

Prostate = assay: NCI SRB cytotoxicity, prostate panel average; assay type: cell-based, human; settings: average of cell lines
Method: as §1, §2

Breast = assay: NCI SRB cytotoxicity, breast panel average; assay type: cell-based, human; settings: average of cell lines
Method: as §1, §2

[1] = Homo sapiens, read-out: Log10 LC50 (concentration in mol/L causing 50% cell death) (converted)

For `COc1cc(-c2cc(/C=C/C(=O)c3ccc(F)c(F)c3)[nH]n2)cc(OC)c1OC` [13e, (E)-1-(3,4-difluorophenyl)-3-(3-(3,4,5-trimethoxyphenyl)-1H-pyrazol-5-yl)prop-2-en-1-one], the GI50 (CCRF-CEM) was 3.8 µM, the GI50 (HL-60(TB)) was 2.48 µM and the GI50 (K-562) was 3.31 µM. It also gave a GI50 (MOLT-4) of 2.72 µM, a GI50 (NCIH322M) of 3.37 µM and a GI50 (NCI-H522) of 1.57 µM. For the same compound, the GI50 (COLO-205) was 1.69 µM, the GI50 (HCT-116) was 4 µM and the GI50 (HT29) was 2.62 µM. The GI50 (SF-539) was 3.76 µM, the GI50 (SNB-19) was 3.64 µM and the GI50 (SNB-75) was 2.9 µM. The GI50 (LOX IMVI) was 3.18 µM, the GI50 (MALME-3M) was 2.96 µM and the GI50 (M14) was 2.7 µM. For the same compound, the GI50 (MDA-MB-435) was 2.88 µM, the GI50 (SK-MEL-2) was 2.3 µM and the GI50 (SK-MEL-28) was 5.31 µM. It also gave a GI50 (SK-MEL-5) of 2.27 µM, a GI50 (IGROV1) of 3.62 µM and a GI50 (OVCAR-3) of 2.39 µM. The GI50 (OVCAR-8) was 2.88 µM, the GI50 (NCI/ADR-RES) was 3.46 µM and the GI50 (SK-OV-3) was 3.53 µM. For the same compound, the GI50 (786-0) was 3.35 µM, the GI50 (ACHN) was 3.26 µM and the GI50 (RXF 393) was 2.05 µM. For the same compound, the GI50 (UO-31) was 2.63 µM, the GI50 (PC-3) was 1.66 µM and the GI50 (MCF7) was 3.2 µM. For the same compound, the GI50 (BT-549) was 4.11 µM, the GI50 (T-47D) was 2.45 µM and the LC50 (Non-small cell lung; [1]) was 87.1 µM. For the same compound, the “Log10 GI50 (concentration in mol/L causing 50% growth inhibition)” value (Non-small cell lung) was −5.54 mol/L, the “Log10 TGI (concentration in mol/L causing total growth inhibition (0% growth))” value (Non-small cell lung) was −4.75 mol/L and the LC50 (Colon; [1]) was 58.9 µM. For the same compound, the “Log10 GI50 (concentration in mol/L causing 50% growth inhibition)” value (Colon) was −5.52 mol/L, the “Log10 TGI (concentration in mol/L causing total growth inhibition)” value (Colon) was −4.70 mol/L and the LC50 (Melanoma; [1]) was 64.6 µM. For the same compound, the “Log10 GI50 (concentration in mol/L causing 50% growth inhibition)” value (Melanoma) was −5.56 mol/L, the “Log10 TGI (concentration in mol/L causing total growth inhibition)” value (Melanoma) was −5.00 mol/L and the CC50 (Renal; [1]) was 93.3 µM. For the same compound, the “Log10 GI50 (concentration in mol/L causing 50% growth inhibition)” value (Renal) was −5.56 mol/L, the “Log10 TGI (concentration in mol/L causing total growth inhibition (0% growth))” value (Renal) was −4.71 mol/L and the CC50 (Prostate; [1]) was 0.0001 mol/L. The “Log10 GI50 (concentration in mol/L causing 50% growth inhibition)” value (Prostate) was −5.78 mol/L, the “Log10 TGI (concentration in mol/L causing total growth inhibition (0% growth))” value (Prostate) was −5.24 mol/L and the CC50 (Breast; [1]) was 97.7 µM. For the same compound, the “Log10 GI50 (concentration in mol/L causing 50% growth inhibition)” value (Breast) was −5.56 mol/L and the “Log10 TGI (concentration in mol/L causing total growth inhibition (0% growth))” value (Breast) was −4.83 mol/L.
